Where a name gives a salt, the structure may show the parent alone.

In the first experiment the test system is ATGL-KO iPSCs. Briefly: High throughput iPSC chemical screening, Oil Red O (ORO) lipid accumulation. For Z-score: test concentration or dose not given here. The following applies: glycolytic switch compounds. Type of experiment: cell-based, mouse.
`O=c1[nH]c2ccccc2n1C1CCN(CCCC(c2ccc(F)cc2)c2ccc(F)cc2)CC1` [Pimozide]: the “Rank in normalized ORO score from screen” value was 330.

Regarding `CC(=O)Oc1ccc(C(c2ccc(OC(C)=O)cc2)c2ccccn2)cc1` [Bisacodyl], the “Rank in normalized ORO score from screen” value was found to be 791.

`O=C(N/N=C/c1ccc([N+](=O)[O-])o1)c1ccc(O)cc1` [Nifuroxazide]: the “Rank in normalized ORO score from screen” value was 957.

Staying with this experiment, now noted: normalized ORO level vs DMSO-treated cells; compound present during 7 days differentiation, 96-well; negative = decrease in lipid accumulation.
The molecule `Nc1ccn([C@H]2CC[C@@H](CO)O2)c(=O)n1` [Zalcitabine] came in with a Z-score of 2.323.

With `CN(C)CCCO[C@@H]1[C@H]2OC(C)(C)O[C@H]2O[C@@H]1[C@H](O)CO` [Amiprilose hydrochloride], the Z-score is −0.6893.

Regarding `Cn1cc[nH]c1=S` [Methimazole], the Z-score is 0.6934.

In the case of `O=C1NCC2(CCN(CCc3ccccc3)CC2)O1` [Fenspiride hydrochloride], the Z-score is given as 0.2827.

Consider `O=c1[nH]c2ccccc2n1C1CCN(CCCC(c2ccc(F)cc2)c2ccc(F)cc2)CC1` [Pimozide], for which the Z-score is −0.7483.

Consider `CNC1(C)C2CCC(C2)C1(C)C` (stereo not drawn) [Mecamylamine hydrochloride], for which the Z-score worked out at 2.563.

`CC(C)(C)NC(=O)[C@@H]1C[C@@H]2CCCC[C@@H]2CN1C[C@@H](O)[C@H](Cc1ccccc1)NC(=O)[C@H](CC(N)=O)NC(=O)c1ccc2ccccc2n1` [Saquinavir mesylate] came in with a Z-score of 1.027.

Take `CC(=O)Oc1ccc(C(c2ccc(OC(C)=O)cc2)c2ccccn2)cc1` [Bisacodyl]: the Z-score came out at 0.477.

On to `COC(=O)[C@H]1[C@H]2C[C@H]3c4[nH]c5ccccc5c4CCN3C[C@H]2CC[C@@H]1O` [Rauwolscine hydrochloride], for which the Z-score is listed as −0.7161.

Molecule Terbutaline hemisulfate showed a Z-score of 2.278.

Turning to `N[C@@H]1C[C@H]1c1ccccc1` [Tranylcypromine hydrochloride], the Z-score is −0.2314.

Regarding `O=C(CCCN1CCC(n2c(O)nc3ccccc32)CC1)c1ccc(F)cc1` [Benperidol], the Z-score is −0.2696.

For `CN1C(=O)OC(C)(C)C1=O` [Trimethadione], the Z-score is reported as −0.8958.

As for `CC(O)Cn1cnc2c1c(=O)n(C)c(=O)n2C` (stereo not drawn) [Proxyphylline], the Z-score is −0.7317.

Molecule `COc1cc(N)c(Cl)cc1C(=O)NC1CCN(Cc2ccccc2)CC1` [Clebopride maleate] returned a Z-score of −0.108.

Consider `O=c1cc(-c2ccc(O)c(O)c2)oc2cc(O)cc(O)c12` [Luteolin], for which the Z-score is −1.0098.

For `CN(C)[C@@H]1C(O)=C(C(=O)NCNCCCC[C@H](N)C(=O)O)C(=O)[C@@]2(O)C(O)=C3C(=O)c4c(O)cccc4[C@@](C)(O)[C@H]3C[C@@H]12` [Lymecycline], the Z-score is recorded as −1.3365.

`CC[N+]1(C)[C@@H]2CC[C@H]1CC(OC(=O)[C@@H]1CC[C@@](C(=O)OC3C[C@H]4CC[C@@H](C3)[N+]4(C)CC)(c3ccccc3)c3ccccc31)C2.[Cl-].[Cl-]` (stereo partly drawn) [beta-Belladonnine dichloroethylate] yielded a Z-score of −0.7978.

Turning to `CC(Cc1ccc(O)cc1)NCC(O)c1cc(O)cc(O)c1` (stereo not drawn) [Fenoterol hydrobromide], the Z-score is recorded as −0.7445.

As for `CCc1cccc(CC)c1NC(=O)CN(CC(=O)O)CC(=O)O` [Etifenin], the Z-score is given as −1.0427.

On to `c1ccc([C@H]2CN3CCSC3=N2)cc1` [Levamisole hydrochloride], for which the Z-score was −0.8539.

Take `Nc1ccc(/N=N/c2ccccc2)c(N)n1` [Phenazopyridine hydrochloride]: the Z-score is on record as −0.2483.

Regarding `COC1=C[C@@H]2C3=C([C@@H]2C1=O)[C@@H](NC(C)=O)CCc1cc(OC)c(OC)c(OC)c13` [Lumicolchicine gamma], the Z-score is 0.6596.

Take `O=C(CCCN1CC=C(n2c(=O)[nH]c3ccccc32)CC1)c1ccc(F)cc1` [Droperidol]: the Z-score is listed as −0.5996.

With `CCN(CC)C(=O)c1ccc(O)c(OC)c1` [Ethamivan], the Z-score was −0.565.

`O=C(O)COCCN1CCN(C(c2ccccc2)c2ccc(Cl)cc2)CC1` (stereo not drawn) [Cetirizine dihydrochloride] had a Z-score of −0.3764.

Molecule `C[C@@]1(O)CCOC(=O)C1` [Mevalonic-D, L acid lactone] yielded a Z-score of −1.4333.

For the molecule `O=C(NCCNCC(O)COc1ccc(O)cc1)N1CCOCC1` (stereo not drawn) [Xamoterol hemifumarate], the Z-score was −0.1402.

With `Cc1c2ccncc2c(C)c2c1[nH]c1ccccc12` [Ellipticine], the Z-score is reported as 36.711.

Turning to `CC[C@@H](C)C(=O)O[C@H]1[C@H](O)[C@H]2[C@@H](CN3C[C@@H](C)CC[C@H]3[C@@]2(C)O)[C@@H]2C[C@]34O[C@]5(O)[C@@H](OC(=O)[C@@](C)(O)CC)CC[C@@]3(C)[C@@H]5[C@@H](OC(C)=O)[C@@H](OC(C)=O)[C@H]4[C@@]21O` [Protoveratrine A], the Z-score is listed as 1.895.

`C[C@]12C=CC(=O)C=C1CC[C@@H]1[C@@H]2C(=O)C[C@@]2(C)[C@H]1CC[C@]2(O)C(=O)CO` [Prednisone]: the Z-score turned out to be 0.05393.

`O=C(COc1ccc(Cl)cc1)N1CCN(Cc2ccc3c(c2)OCO3)CC1` [Fipexide hydrochloride] registered a Z-score of −0.9747.

In the case of Deptropine citrate, the Z-score was −0.0889.

`CCCCc1oc2ccccc2c1C(=O)c1cc(I)c(OCCN(CC)CC)c(I)c1` [Amiodarone hydrochloride] gave a Z-score of 0.1139.

With `CCCCCCCCCCCCCCCC[N+](C)(C)CCN(Cc1ccc(OC)cc1)c1ncccn1` [Thonzonium bromide], the Z-score was found to be 2.814.

For Iproniazide phosphate, the Z-score is reported as −0.4106.

`COc1ccc(-c2cc(=O)c3c(O)cc(O)cc3o2)cc1` [Acacetin] showed a Z-score of 0.4211.

On to `C[C@@H]1O[C@@H](O[C@@H]2C=C3CC[C@@H]4[C@H](CC[C@]5(C)[C@@H](c6ccc(=O)oc6)CC[C@]45O)[C@@]3(C)CC2)[C@H](O)[C@H](O)[C@H]1O` [Proscillaridin A], for which the Z-score was −1.0698.

`CC(C)NCC(O)c1ccc(O)c(O)c1.Cl` (single isomer, unassigned; (-)) [(−)-Isoproterenol hydrochloride] showed a Z-score of 4.267.

The molecule `CCC[C@@H]1C[C@@H](C(=O)N[C@@H]([C@H]2O[C@H](SC)[C@H](O)[C@@H](O)[C@H]2O)[C@@H](C)O)N(C)C1` [Lincomycin hydrochloride] displayed a Z-score of 0.696.

In turn, `Cc1ccnc(NS(=O)(=O)c2ccc(N)cc2)n1` [Sulfamerazine] registered a Z-score of −0.0984.

As for `CN(C)[C@@H]1C(O)=C(C(N)=O)C(=O)[C@@]2(O)C(O)=C3C(=O)c4c(O)ccc(Cl)c4[C@@H](O)[C@H]3C[C@@H]12` [Demeclocycline hydrochloride], the Z-score is on record as 1.787.

Take `COc1ccc2[nH]c([S+]([O-])Cc3ncc(C)c(OC)c3C)nc2c1` (stereo not drawn) [Omeprazole]: the Z-score is recorded as −0.5848.

Consider `CCN(CC)CCOC(=O)c1ccc(N)cc1` [Procaine hydrochloride], for which the Z-score is given as −0.5215.

In turn, `CC(=O)Nc1ccc(OCC(O)CNC(C)C)cc1` (stereo not drawn) [Practolol] yielded a Z-score of −0.3373.

`COc1ccc(C(=O)c2ccccc2)c(O)c1` [Oxybenzone] gave a Z-score of −1.1732.

On to `CC1(C)S[C@@H]2[C@H](NC(=O)Cc3ccccc3)C(=O)N2[C@H]1C(=O)O` [Benzylpenicillin sodium], for which the Z-score was −0.794.

`C[C@@H]1C(=O)O[C@H]2C[C@@]34[C@H]5C[C@@H](C(C)(C)C)[C@]36[C@@H](OC(=O)[C@@H]6O)O[C@@]4(C(=O)O5)[C@]21O` [Ginkgolide A] gave a Z-score of −0.1024.

Take `Cc1cc(=O)oc2cc(O)ccc12` [Hymecromone]: the Z-score is reported as −0.7731.

As to `COc1cc(C(=O)NCc2ccc(OCCN(C)C)cc2)cc(OC)c1OC` [Trimethobenzamide hydrochloride], the Z-score is 1.06.

In the case of `COc1cc([S+](C)[O-])ccc1-c1nc2ncccc2[nH]1` (stereo not drawn) [Sulmazole], the Z-score came to 0.4097.

Consider `CC[N+](CC)(CC)CCC(O)(c1ccccc1)C1CCCCC1.[Cl-]` (stereo not drawn) [Tridihexethyl chloride], for which the Z-score was 0.01977.

The molecule `N[C@@H](Cc1ccc(O)c(O)c1)C(=O)O` [Levodopa] returned a Z-score of −0.1655.

`Fc1ccc(C(c2ccc(F)cc2)N2CCN(C/C=C/c3ccccc3)CC2)cc1` [Flunarizine dihydrochloride] returned a Z-score of 0.2207.

Molecule `CC(=O)Nc1ccc(O)cc1` [Acetaminophen] came in with a Z-score of −0.6512.

For Lycorine hydrochloride, the Z-score was 21.7885.

For the molecule `CC(=O)Nc1nnc(S(N)(=O)=O)s1` [Acetazolamide], the Z-score worked out at 0.8773.

With `C[C@@H]1CCC[C@H](C)N1.Cl` [(cis-) Nanophine], the Z-score is reported as −1.4074.

With `OC(CCN1CCCC1)(c1ccccc1)C1CCCCC1` (stereo not drawn) [Procyclidine hydrochloride], the Z-score is reported as −0.6071.

`O=C(N/N=C/c1ccc([N+](=O)[O-])o1)c1ccc(O)cc1` [Nifuroxazide]: the Z-score is reported as 1.279.

The molecule `COc1ccc(OC)c(C(O)C(C)N)c1` (stereo not drawn) [Methoxamine hydrochloride] yielded a Z-score of 0.4239.

In the case of `CCCN1C[C@H](CSC)C[C@@H]2c3cccc4[nH]cc(c34)C[C@H]21` [Pergolide mesylate], the Z-score is recorded as −0.3289.

Molecule `COC(=O)Nc1nc2ccc(C(=O)c3ccccc3)cc2[nH]1` [Mebendazole] gave a Z-score of 49.935.

`CC(C)(C)C(=O)OCOC(=O)[C@@H]1N2C(=O)[C@@H](/N=C/N3CCCCCC3)[C@H]2SC1(C)C` [Pivmecillinam hydrochloride] showed a Z-score of −0.219.

Consider `N=C(N)NC(=O)Cc1c(Cl)cccc1Cl` [Guanfacine hydrochloride], for which the Z-score is −0.0783.

In turn, `COc1c2c(cc3c1OCO3)CCN(C)C2` [Hydrocotarnine hydrobromide] came in with a Z-score of −0.8038.

On to `CC(=O)OC(C)C[N+](C)(C)C` (stereo not drawn) [Methacholine chloride], for which the Z-score is −0.8044.

In turn, `Nc1cc(C(Cl)=C(Cl)Cl)c(S(N)(=O)=O)cc1S(N)(=O)=O` [Clorsulon] yielded a Z-score of −0.1576.

Molecule `CNc1ncnc2c1ncn2[C@@H]1O[C@H](CO)[C@@H](O)[C@H]1O` [N6-methyladenosine] came in with a Z-score of −0.5287.

For the origin of these results see US9393221B2, “Methods and compounds for reducing intracellular lipid storage” (THE GENERAL HOSPITAL CORPORATION, priority 2011, dated 2016).
